Experimental data as given in US11174233B1, “Anti-cancer compounds having oxazolone derivation” (King Abdulaziz University, priority 2019, dated 2021).

Assays:
[1] = system: MCF-7 (breast) cancer cells; assay: SRB cytotoxicity assay against MCF7; type: cell-based, human; conditions: 72 h treatment
Description: (§1) MCF-7 (breast) and PC3 (prostate) cancer cells were each grown in RPMI-1640 medium supplemented with 10% heat inactivated FBS, 50 units/mL of penicillin, and […] of streptomycin. The cultures were maintained at 37° C. in a humidified atmosphere containing 5% CO2. The cells were maintained as “monolayer culture” by serial sub-culturing.
(§2) Cytotoxicity was determined using SRB method as previously described by Skehan et al. [Skehan P.; Storeng R.; Scudiero D.; Monks A.; McMahon J.; al., V. D. e., New colorimetric cytotoxicity assay for anticancer drug screening. […] Exponentially growing cells were collected using 0.25% Trypsin-EDTA and seeded in 96-well plates at 1000-2000 cells/well in RPMI-1640 supplemented medium. After 24 h, cells were incubated for 72 h with various concentrations of the tested compounds. Following 72 h treatment, the cells would be fixed with 10% trichloroacetic acid for 1 h at 4° C. Wells were stained for 10 min at room temperature with 0.4% SRB dissolved in 1% acetic acid. The plates were air dried for 24 h and the dye was solubilized with Tris-HCl for 5 min on a shaker at 1600 rpm. The optical density (OD) of each well was measured spectrophotometrically at 564 nm with an ELISA microplate reader (ChroMate-4300, FL, USA). The IC50 values were calculated according to the equation for Boltzman sigmoidal concentration—response curve using the nonlinear regression fitting models (Graph Pad, Prism Version 5).

[2] = system: PC3 (prostate) cancer cells; assay: SRB cytotoxicity assay against PC3; type: cell-based, human; conditions: 72 h treatment
Description: as §1, §2

melting point [°C] | SMILES | IC50 ([1]; Homo sapiens) [µM] | IC50 ([2]; Homo sapiens) [µM] | IC50 [1] [µM] | IC50 [2] [µM]
– | O=C(Cc1ccc(NC(=O)C(=Cc2ccc(Cl)cc2)NC(=O)c2ccccc2)cc1)NCc1ccccc1 (stereo in doubt) [KIM-221V, (E)-N-(3-((4-(2-(benzylamino)-2-oxoethyl)phenyl)amino)-1-(4-chlorophenyl)-3-oxoprop-1-en-2-yl)benzamide] | 3.12 | 4.08 | – | –
164 to 165 | CC1=N/C(=C\c2ccccc2)C(=O)N1c1ccc(CC(=O)NCc2ccccc2)cc1 [KIM-111C, (Z)—N-benzyl-2-(4-(4-benzylidene-2-methyl-5-oxo-4,5-dihydro-1H-imidazol-1-yl)phenyl)acetamide] | – | – | – | –
197 | CC(=O)N/C(=C/c1ccccc1)C(=O)Nc1ccc(CC(=O)NCc2ccccc2)cc1 [KIM-111V, (E)-2-acetamido-N-(4-(2-(benzylamino)-2-oxoethyl)phenyl)-3-phenylacrylamide] | > 100 | > 100 | – | –
209 to 211 | CC1=N/C(=C\c2ccc(Cl)cc2)C(=O)N1c1ccc(CC(=O)NCc2ccccc2)cc1 [KIM-121C, (Z)—N-benzyl-2-(4-(4-(4-chlorobenzylidene)-2-methyl-5-oxo-4,5-dihydro-1H-imidazol-1-yl)phenyl)acetamide] | – | 6.86 | – | –
– | CC(=O)N/C(=C/c1ccc(Cl)cc1)C(=O)Nc1ccc(CC(=O)NCc2ccccc2)cc1 [KIM-121V, (E)-2-acetamido-N-(4-(2-(benzylamino)-2-oxoethyl)phenyl)-3-(4-chlorophenyl)acrylamide] | > 100 | 57.3 | – | –
– | COc1cc(/C=C2\N=C(C)N(c3ccc(CC(=O)NCc4ccccc4)cc3)C2=O)ccc1O [KIM-131C, (Z)—N-benzyl-2-(4-(4-(4-hydroxy-3-methoxybenzylidene)-2-methyl-5-oxo-4,5-dihydro-1H-imidazol-1-yl)phenyl)acetamide] | 9.48 | 5.83 | – | –
– | COc1cc(/C=C(/NC(C)=O)C(=O)Nc2ccc(CC(=O)NCc3ccccc3)cc2)ccc1O [KIM-131V, (E)-2-acetamido-N-(4-(2-(benzylamino)-2-oxoethyl)phenyl)-3-(4-hydroxy-3-methoxyphenyl) acrylamide] | – | – | 53.5 | 61.3
– | COc1ccc(/C=C(/NC(C)=O)C(=O)Nc2ccc(CC(=O)NCc3ccccc3)cc2)cc1 [KIM-161V, (E)-2-acetamido-N-(4-(2-(benzylamino)-2-oxoethyl)phenyl)-3-(4-methoxyphenyl) acrylamide] | – | – | 44.3 | 41.1
218 to 219 | O=C(Cc1ccc(N2C(=O)/C(=C/c3ccccc3)N=C2c2ccccc2)cc1)NCc1ccccc1 [KIM-211C, (Z)—N-benzyl-2-(4-(4-benzylidene-5-oxo-2-phenyl-4,5-dihydro-1H-imidazol-1-yl)phenyl)acetamide] | – | – | – | –
– | O=C(Cc1ccc(NC(=O)/C(=C\c2ccccc2)NC(=O)c2ccccc2)cc1)NCc1ccccc1 [KIM-211V, (E)-N-(3-((4-(2-(benzylamino)-2-oxoethyl)phenyl)amino)-3-oxo-1-phenylprop-1-en-2-yl) benzamide] | > 100 | > 100 | – | –
218 to 220 | O=C(Cc1ccc(N2C(=O)/C(=C/c3ccc(Cl)cc3)N=C2c2ccccc2)cc1)NCc1ccccc1 [KIM-221C, (Z)—N-benzyl-2-(4-(4-(4-chlorobenzylidene)-5-oxo-2-phenyl-4,5-dihydro-1H-imidazol-1-yl)phenyl)acetamide] | – | – | – | –
109 to 112 | COc1cc(/C=C2\N=C(c3ccccc3)N(c3ccc(CC(=O)NCc4ccccc4)cc3)C2=O)ccc1O [KIM-231C, (Z)—N-benzyl-2-(4-(4-(4-hydroxy-3-methoxybenzylidene)-5-oxo-2-phenyl-4,5-dihydro-1H-imidazol-1-yl)phenyl)acetamide] | – | – | – | –
– | COc1cc(/C=C(/NC(=O)c2ccccc2)C(=O)Nc2ccc(CC(=O)NCc3ccccc3)cc2)ccc1O [KIM-231V, (E)-N-(3-((4-(2-(benzylamino)-2-oxoethyl)phenyl)amino)-1-(4-hydroxy-3-methoxyphenyl)-3-oxoprop-1-en-2-yl)benzamide] | > 100 | > 100 | – | –
193 | COc1ccc(/C=C2\N=C(c3ccccc3)N(c3ccc(CC(=O)NCc4ccccc4)cc3)C2=O)cc1 [KIM-261C, (Z)—N-benzyl-2-(4-(4-(4-methoxybenzylidene)-5-oxo-2-phenyl-4,5-dihydro-1H-imidazol-1-yl)phenyl)acetamide] | – | – | – | –
– | COc1ccc(/C=C(/NC(=O)c2ccccc2)C(=O)Nc2ccc(CC(=O)NCc3ccccc3)cc2)cc1 [KIM-261V, (E)-N-(3-((4-(2-(benzylamino)-2-oxoethyl)phenyl)amino)-1-(4-methoxyphenyl)-3-oxoprop-1-en-2-yl)benzamide] | > 100 | > 100 | – | –
– | Cc1cc(F)ccc1/C=C(/NC(=O)c1ccccc1)C(=O)Nc1ccc(CC(=O)NCc2ccccc2)cc1 [KIM-2101V, (E)-N-(3-((4-(2-(benzylamino)-2-oxoethyl)phenyl)amino)-1-(4-fluoro-2-methylphenyl)-3-oxoprop-1-en-2-yl)benzamide] | > 100 | > 100 | – | –
– | COc1ccc(CNC(=O)Cc2ccc(NC(=O)/C(=C\c3ccc(Cl)cc3)NC(=O)c3ccccc3)cc2)cc1 [KIM-2216V, (E)-N-(1-(4-chlorophenyl)-3-((4-(2-((4-methoxybenzyl)amino)-2-oxoethyl)phenyl)amino)-3-oxoprop-1-en-2-yl)benzamide] | > 100 | > 100 | – | –
– | O=C(Cc1ccc(NC(=O)/C(=C\c2ccc(Cl)cc2)NC(=O)c2ccccc2)cc1)NCc1ccco1 [KIM-2230V, (E)-N-(1-(4-chlorophenyl)-3-((4-(2-((furan-2-ylmethyl)amino)-2-oxoethyl)phenyl)amino)-3-oxoprop-1-en-2-yl)benzamide] | > 100 | 97.8 | – | –
– | CN(Cc1ccccc1)C(=O)Cc1ccc(NC(=O)/C(=C\c2ccc(Cl)cc2)NC(=O)c2ccccc2)cc1 [KIM-2245V, (E)-N-(3-((4-(2-(benzyl(methyl)amino)-2-oxoethyl)phenyl)amino)-1-(4-chlorophenyl)-3-oxoprop-1-en-2-yl)benzamide] | > 100 | > 100 | – | –
– | O=C(Cc1ccc(NC(=O)/C(=C\c2ccc(Cl)cc2)NC(=O)c2ccccc2)cc1)NCCc1ccccc1 [KIM-2246V, (E)-N-(1-(4-chlorophenyl)-3-oxo-3-((4-(2-oxo-2-(phenethylamino)ethyl)phenyl)amino)prop-1-en-2-yl)benzamide] | > 100 | > 100 | – | –
– | CC(NC(=O)Cc1ccc(NC(=O)/C(=C\c2ccc(Cl)cc2)NC(=O)c2ccccc2)cc1)c1ccccc1 (stereo not shown) [KIM-2247V, (E)-N-(1-(4-chlorophenyl)-3-oxo-3-((4-(2-oxo-2-((1-phenylethyl)amino)ethyl)phenyl)amino)prop-1-en-2-yl)benzamide] | > 100 | > 100 | – | –
– | O=C(Cc1ccc(NC(=O)/C(=C\c2ccc(Cl)cc2)NC(=O)c2ccccc2)cc1)NCc1ccc(F)cc1 [KIM-2248V, (E)-N-(1-(4-chlorophenyl)-3-((4-(2-((4-fluorobenzyl)amino)-2-oxoethyl)phenyl)amino)-3-oxoprop-1-en-2-yl)benzamide] | 89.6 | 85.1 | – | –
– | O=C(Cc1ccc(NC(=O)/C(=C\c2ccc(Cl)cc2)NC(=O)c2ccccc2)cc1)NCc1ccc(-c2ccccc2)cc1 [KIM-2249V, (E)-N-(3-((4-(2-(([1,1′-biphenyl]-4-ylmethyl)amino)-2-oxoethyl)phenyl)amino)-1-(4-chlorophenyl)-3-oxoprop-1-en-2-yl)benzamide] | 87.5 | 92.2 | – | –
– | O=C(Cc1ccc(NC(=O)/C(=C\c2ccc(Cl)cc2)NC(=O)c2ccccc2)cc1)NCc1cccc(F)c1 [KIM-2250V, (E)-N-(1-(4-chlorophenyl)-3-((4-(2-((3-fluorobenzyl)amino)-2-oxoethyl)phenyl)amino)-3-oxoprop-1-en-2-yl)benzamide] | > 100 | > 100 | – | –
– | O=C(Cc1ccc(NC(=O)/C(=C\c2ccc(Cl)cc2)NC(=O)c2ccccc2)cc1)Nc1ccccc1 [KIM-22101V, (E)-N-(1-(4-chlorophenyl)-3-oxo-3-((4-(2-oxo-2-(phenylamino)ethyl)phenyl)amino)prop-1-en-2-yl)benzamide] | > 100 | > 100 | – | –
